Results reported in a compilation of properties of binary mixtures (doi:10.1007/s11581-010-0511-5).

Assay: xn = mol fraction of the nth substance listed
Settings: 101 kPa

CO + CCCC[N+]1(C)CCCC1.O=S(=O)([N-]S(=O)(=O)C(F)(F)F)C(F)(F)F
x2 = 0
Settings	viscosity [mPa·s]
298.15 K	0.7
303.15 K	0.66
308.15 K	0.61
313.15 K	0.57
318.15 K	0.53

CCCC[N+]1(C)CCCC1.O=S(=O)([N-]S(=O)(=O)C(F)(F)F)C(F)(F)F + CO
Settings	electrical conductivity [S/m]	viscosity [mPa·s]
293.15 K, x1 = 0.11	0.628	2.16
293.15 K, x1 = 0.16	1.22	3.9
293.15 K, x1 = 0.21	1.6	6.01
293.15 K, x1 = 0.32	1.98	10.65
293.15 K, x1 = 0.42	2.14	15.15
293.15 K, x1 = 0.47	2.04	17.28
293.15 K, x1 = 0.53	1.82	19.42
293.15 K, x1 = 0.58	1.63	21.7
293.15 K, x1 = 0.63	1.47	24.4
293.15 K, x1 = 0.68	1.23	27.6
293.15 K, x1 = 0.74	0.998	31.9
293.15 K, x1 = 0.79	0.82	37.6
293.15 K, x1 = 0.84	0.649	45.2
293.15 K, x1 = 0.89	0.402	55.3
293.15 K, x1 = 0.95	–	68.7
293.15 K, x1 = 1	0.229	86
298.15 K, x1 = 0.05	0.399	0.94
298.15 K, x1 = 0.11	0.684	1.93
298.15 K, x1 = 0.16	1.32	3.43
298.15 K, x1 = 0.21	1.73	5.24
298.15 K, x1 = 0.32	2.15	9.18
298.15 K, x1 = 0.37	2.32	11.1
298.15 K, x1 = 0.42	2.37	12.93
298.15 K, x1 = 0.47	2.33	14.69
298.15 K, x1 = 0.53	2.12	16.43
298.15 K, x1 = 0.58	1.88	18.28
298.15 K, x1 = 0.63	1.66	20.39
298.15 K, x1 = 0.68	1.43	23
298.15 K, x1 = 0.74	1.2	26.3
298.15 K, x1 = 0.79	0.991	30.8
298.15 K, x1 = 0.84	0.786	36.7
298.15 K, x1 = 0.89	0.495	44.6
298.15 K, x1 = 0.95	–	54.9
298.15 K, x1 = 1	0.282	68.1
303.15 K, x1 = 0.05	0.43	0.88
303.15 K, x1 = 0.11	0.754	1.75
303.15 K, x1 = 0.16	1.43	3.06
303.15 K, x1 = 0.21	1.88	4.62
303.15 K, x1 = 0.32	2.35	7.96
303.15 K, x1 = 0.37	2.53	9.57
303.15 K, x1 = 0.47	2.59	12.57
303.15 K, x1 = 0.53	2.37	14.02
303.15 K, x1 = 0.58	2.1	15.54
303.15 K, x1 = 0.63	1.84	17.28
303.15 K, x1 = 0.68	1.6	19.39
303.15 K, x1 = 0.74	1.35	22.1
303.15 K, x1 = 0.79	1.13	25.6
303.15 K, x1 = 0.84	0.94	30.2
303.15 K, x1 = 0.89	0.601	36.2
303.15 K, x1 = 0.95	–	44
303.15 K, x1 = 1	0.344	54
308.15 K, x1 = 0.05	0.464	0.82
308.15 K, x1 = 0.11	0.816	1.6
308.15 K, x1 = 0.16	1.54	2.75
308.15 K, x1 = 0.21	2.07	4.1
308.15 K, x1 = 0.32	2.55	6.97
308.15 K, x1 = 0.37	2.74	8.34
308.15 K, x1 = 0.42	2.86	9.64
308.15 K, x1 = 0.53	2.65	12.09
308.15 K, x1 = 0.58	2.36	13.36
308.15 K, x1 = 0.63	2.1	14.8
308.15 K, x1 = 0.74	1.57	18.74
308.15 K, x1 = 0.79	1.33	21.6
308.15 K, x1 = 0.84	1.1	25.3
308.15 K, x1 = 0.89	0.686	30.2
308.15 K, x1 = 0.95	–	36.4
308.15 K, x1 = 1	0.415	44.4
313.15 K, x1 = 0.05	0.504	0.77
313.15 K, x1 = 0.11	0.86	1.47
313.15 K, x1 = 0.16	1.66	2.48
313.15 K, x1 = 0.21	2.24	3.67
313.15 K, x1 = 0.26	2.53	4.92
313.15 K, x1 = 0.37	2.95	7.34
313.15 K, x1 = 0.42	3.07	8.45
313.15 K, x1 = 0.47	3.09	9.51
313.15 K, x1 = 0.58	2.63	11.64
313.15 K, x1 = 0.63	2.38	12.85
313.15 K, x1 = 0.79	1.55	18.4
313.15 K, x1 = 0.89	0.876	25.1
313.15 K, x1 = 0.95	–	29.8
318.15 K, x1 = 0.05	0.538	0.73
318.15 K, x1 = 0.11	0.94	1.36
318.15 K, x1 = 0.16	1.8	2.26
318.15 K, x1 = 0.26	2.7	4.39
318.15 K, x1 = 0.32	3.02	5.45
318.15 K, x1 = 0.37	3.18	6.46
318.15 K, x1 = 0.42	3.26	7.41
318.15 K, x1 = 0.47	3.3	8.32
318.15 K, x1 = 0.53	3.18	9.22
318.15 K, x1 = 0.58	2.86	10.16
318.15 K, x1 = 0.74	1.98	14.02
318.15 K, x1 = 0.89	0.991	21.4
318.15 K, x1 = 1	0.559	29.7
